Consider four compounds from ChEMBL document CHEMBL3621050, “Activity and anion inhibition studies of the α-carbonic anhydrase from Thiomicrospira crunogena XCL-2 Gammaproteobacterium” (Bioorg Med Chem Lett, 2015).

Assay [1] deals with T1, Carbonic anhydrase, alpha family (Thiomicrospira crunogena, UniProt Q31FD6).
T1 sequence (Q31FD6 whole entry): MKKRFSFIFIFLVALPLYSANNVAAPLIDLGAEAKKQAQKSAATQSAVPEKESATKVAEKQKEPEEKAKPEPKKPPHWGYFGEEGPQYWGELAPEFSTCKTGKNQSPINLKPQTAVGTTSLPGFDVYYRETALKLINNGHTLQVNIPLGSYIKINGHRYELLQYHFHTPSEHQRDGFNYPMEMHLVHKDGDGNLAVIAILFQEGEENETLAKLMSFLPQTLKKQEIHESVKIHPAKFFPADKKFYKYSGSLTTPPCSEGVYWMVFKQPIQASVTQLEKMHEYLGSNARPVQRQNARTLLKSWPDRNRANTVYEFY
As to the kind of experiment: Inhibition of Thiomicrospira crunogena XCL-2 alpha-carbonic anhydrase expressed in Escherichia coli BL21 (DE3) cells by [18O]-exchange mass spectroscopy.

Assay [2] in a line: Inhibition of Sulfurihydrogenibium yellowstonense YO3AOP1 alpha-carbonic anhydrase by [18O]-exchange mass spectroscopy.
Assay [3] in a line: Inhibition of Sulfurihydrogenibium azorense alpha-carbonic anhydrase by [18O]-exchange mass spectroscopy.
The nature of assay [4]: Inhibition of Vibrio cholerae alpha-carbonic anhydrase by [18O]-exchange mass spectroscopy.

The term Ki denotes the dissociation constant of the complex between target and ligand, obtained from inhibition or displacement. Regarding `Br` [BROMIDE], the Ki in assay [1] was 242000 µM; in assay [2] it was 49000 µM; in assay [3] it was 940 µM; in assay [4], 28000 µM.

For `Cl` [HYDROCHLORIC ACID], the Ki in assay [1] was found to be 361000 µM; in assay [2], 8300 µM; in assay [3], 850 µM; in assay [4] it was 930 µM.

On to `S` [HYDROGEN SULFIDE], for which the Ki in assay [1] was found to be 1.1 µM; in assay [2] it was 580 µM; in assay [3] it was 380 µM; in assay [4], 74 µM.

`I` [IODIDE]: the Ki amounted to 53000 µM in assay [1], 860 µM in assay [2], 870 µM in assay [3] and 9730 µM in assay [4].
